Laboratory results: patent US20240041042A1, “1-(PYRIDYL)-5-AZINYLPYRAZOLE DERIVATIVES, AND THEIR USE FOR CONTROL OF UNDESIRED PLANT GROWTH” (Bayer Aktiengesellschaft, priority 2020, published 2024)

How the values were obtained:
Type in all cases: in vivo
Setaria viridis (SETVI) [1] = assay: Post-emergence herbicidal action against SETVI
Summary of the method: (§1)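 Post-emergence greenhouse spray, one-leaf stage, 600 l/ha water plus 0.5% additive; WP or EC formulations; application rates 320 g/ha or lower. Visual % damage vs untreated controls at ~3 weeks.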

Lolium rigidum (LOLRI) [2] = assay: Post-emergence herbicidal action against LOLRI
Summary of the method: as §1

[3] = system: Echinochloa crus-galli (ECHCG); assay: Post-emergence herbicidal action against ECHCG
Summary of the method: as §1

[4] = system: Echinochloa crus-galli (ECHCG); assay: Pre-emergence herbicidal action against ECHCG
Summary of the method: (§2)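 Pre-emergence soil-surface spray of compound, formulated as wettable powder or emulsion concentrate, in aqueous suspension or emulsion with 0.5% additive (600 l/ha; rate 320 g/ha or less). Activity rated visually after roughly 3 weeks in the greenhouse as a percentage of untreated controls, 0% meaning no difference.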

[5] = system: Verconica persica (VERPE); assay: Post-emergence herbicidal action against VERPE
Summary of the method: as §1

Avena fatua (AVEFA) [6] = assay: Post-emergence herbicidal action against AVEFA; settings: 320 g/ha, visual rating about 3 weeks after treatment
Summary of the method: as §1

[7] = system: Matricaria inodora (MATIN); assay: Pre-emergence herbicidal action against MATIN
Summary of the method: as §2

[8] = system: Amaranthus retroflexus (AMARE); assay: Pre-emergence herbicidal action against AMARE; settings: visual scoring after about 3 weeks vs untreated controls
Summary of the method: as §2

Viola tricolor (VIOTR) [9] = assay: Post-emergence herbicidal action against VIOTR
Summary of the method: as §1

[10] = system: Polygonum convolvulus (POLCO); assay: Post-emergence herbicidal action against POLCO; settings: dosage 320 g/ha
Summary of the method: as §1

[11] = system: Polygonum convolvulus (POLCO); assay: Pre-emergence herbicidal action against POLCO
Summary of the method: as §2

[12] = system: Verconica persica (VERPE); assay: Pre-emergence herbicidal action against VERPE; settings: dosage 320 g/ha
Summary of the method: as §2

[13] = system: Abutilon theophrasti (ABUTH); assay: Pre-emergence herbicidal action against ABUTH; settings: Dosage column 320 g/ha (title prints 3200 g/ha); scored visually after about 3 weeks; 100% = plants have died
Summary of the method: as §2

[14] = system: Digitaria sanguinalis (DIGSA); assay: Post-emergence herbicidal action against DIGSA; settings: visual rating about 3 weeks after treatment
Summary of the method: as §1

[15] = system: Alopecurus myosuroides (ALOMY); assay: Post-emergence herbicidal action against ALOMY; settings: visual rating about 3 weeks after treatment vs untreated controls (100% = plants have died, 0% = like control plants)
Summary of the method: as §1

[16] = system: Digitaria sanguinalis (DIGSA); assay: Pre-emergence herbicidal action against DIGSA
Summary of the method: as §2

Setaria viridis (SETVI) [17] = assay: Pre-emergence herbicidal action against SETVI
Summary of the method: as §2

[18] = system: Pharbitis purpurea (PHBPU); assay: Pre-emergence herbicidal action against PHBPU
Summary of the method: as §2

Avena fatua (AVEFA) [19] = assay: Pre-emergence herbicidal action against AVEFA; settings: 320 g/ha, visual scoring after about 3 weeks vs untreated controls
Summary of the method: as §2

[20] = system: Abutilon theophrasti (ABUTH); assay: Post-emergence herbicidal action against ABUTH; settings: 320 g/ha, visual rating about 3 weeks after treatment vs untreated controls (100% = plants have died, 0% = like control plants)
Summary of the method: as §1

[21] = system: Pharbitis purpurea (PHBPU); assay: Post-emergence herbicidal action against PHBPU
Summary of the method: as §1

[22] = system: Alopecurus myosuroides (ALOMY); assay: Pre-emergence herbicidal action against ALOMY; settings: scored visually after about 3 weeks, 100% = plants have died
Summary of the method: as §2

Lolium rigidum (LOLRI) [23] = assay: Pre-emergence herbicidal action against LOLRI
Summary of the method: as §2

Viola tricolor (VIOTR) [24] = assay: Pre-emergence herbicidal action against VIOTR
Summary of the method: as §2

[25] = system: Amaranthus retroflexus (AMARE); assay: Post-emergence herbicidal action against AMARE
Summary of the method: as §1

Oryza sativa (ORYSA) = settings: crop plant compatibility, 80 g/ha, effect in comparison to untreated controls
Summary of the method: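 Percent effect on the crop was judged by eye against untreated controls, where 0% means like control and 100% means dead plants. Plants had been sprayed post-emergence at the one-leaf stage and then kept under optimum greenhouse conditions for about 3 weeks.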

[26] = 80 g/ha, visual scoring after about 3 weeks vs untreated controls

Row | Structure (SMILES) | Post-emergence action against SETVI in % (Setaria viridis (SETVI) [1]; dosage 80 g/ha) | Post-emergence action against SETVI in % (Setaria viridis (SETVI) [1]; dosage 320 g/ha) | Post-emergence action against LOLRI in % (Lolium rigidum (LOLRI) [2]; dosage 320 g/ha) | Post-emergence action against ECHCG in % ([3]; dosage 320 g/ha) | Pre-emergence action against ECHCG in % ([4]; dosage 320 g/ha) | Post-emergence action against AVEFA in % (Avena fatua (AVEFA) [6]) | Pre-emergence action against MATIN in % ([7]; dosage 80 g/ha) | Pre-emergence action against MATIN in % ([7]; dosage 320 g/ha) | Pre-emergence action against AMARE in % ([8]; 80 g/ha) | Pre-emergence action against AMARE in % ([8]; 320 g/ha) | Post-emergence action against VIOTR in % (Viola tricolor (VIOTR) [9]; 80 g/ha) | Post-emergence action against VIOTR in % (Viola tricolor (VIOTR) [9]; 320 g/ha) | Pre-emergence action against POLCO in % ([11]; dosage 80 g/ha) | Pre-emergence action against POLCO in % ([11]; dosage 320 g/ha) | Pre-emergence action against VERPE in % [12] | Pre-emergence action against ABUTH [13] | Post-emergence action against DIGSA in % ([14]; 320 g/ha) | Post-emergence action against ALOMY in % ([15]; 80 g/ha) | Post-emergence action against ALOMY in % ([15]; 320 g/ha) | Pre-emergence action against DIGSA in % [16, 26] | further results
1 | COC(=O)[C@H](C)COC(=O)COc1nn(-c2ccccn2)c(-c2cncc(F)c2)c1Br [Example I-195] | 90% | 90% | 80% | 80% | 100% | 90% | 90% | 90% | 90% | 100% | 80% | 80% | 90% | 100% | 100% | 80% | 90% | 80% | 90% | 90% | Post-emergence action against VERPE in % ([5]; 320 g/ha, VERPE): 80%; Post-emergence action against VERPE in % ([5]; dosage 80 g/ha): 80%; Post-emergence action against POLCO in % [10]: 80%; Post-emergence action against DIGSA in % ([14]; 80 g/ha): 90%; Pre-emergence action against DIGSA in % ([16]; dosage 320 g/ha): 100%; Pre-emergence action against SETVI in % (Setaria viridis (SETVI) [17]; dosage 80 g/ha): 100%; Pre-emergence action against SETVI in % (Setaria viridis (SETVI) [17]; dosage 320 g/ha): 100%; Pre-emergence action against PHBPU in % ([18]; dosage 320 g/ha): 90%; Pre-emergence action against AVEFA in % (Avena fatua (AVEFA) [19]): 90%; Post-emergence action against ABUTH in % [20]: 90%; Post-emergence action against PHBPU in % ([21]; dosage 80 g/ha): 90%; Post-emergence action against PHBPU in % ([21]; dosage 320 g/ha): 90%; Pre-emergence action against ALOMY ([22]; 80 g/ha): 80%; Pre-emergence action against ALOMY ([22]; 320 g/ha): 90%; Pre-emergence action against LOLRI in % (Lolium rigidum (LOLRI) [23]; dosage 80 g/ha): 80%; Pre-emergence action against LOLRI in % (Lolium rigidum (LOLRI) [23]; dosage 320 g/ha): 100%; Pre-emergence action against VIOTR in % (Viola tricolor (VIOTR) [24]; 320 g/ha, Viola tricolor): 100%; Pre-emergence action against VIOTR in % (Viola tricolor (VIOTR) [24]; dosage 80 g/ha): 80%
2 | COC(=O)C(C)COC(=O)COc1nn(-c2ccccn2)c(-c2cncc(F)c2)c1Cl (stereo not shown) [Example I-221] | 90% | 90% | 90% | 80% | 100% | 80% | 90% | 90% | 80% | 90% | 80% | 80% | 80% | 90% | 90% | 80% | 80% | 80% | 80% | 90% | Post-emergence action against AMARE in % ([25]; 80 g/ha, visual rating about 3 weeks after treatment vs untreated controls (100% = plants have died, 0% = like control plants)): 80%; Post-emergence action against AMARE in % ([25]; 320 g/ha, visual rating about 3 weeks after treatment): 90%; Post-emergence action against LOLRI in % (Lolium rigidum (LOLRI) [2]; dosage 80 g/ha): 80%; Post-emergence action against ECHCG in % ([3]; dosage 80 g/ha): 80%; Pre-emergence action against ECHCG in % ([4]; dosage 80 g/ha): 90%; Pre-emergence action against DIGSA in % ([16]; dosage 320 g/ha): 100%; Pre-emergence action against SETVI in % (Setaria viridis (SETVI) [17]; dosage 80 g/ha): 90%; Pre-emergence action against SETVI in % (Setaria viridis (SETVI) [17]; dosage 320 g/ha): 100%; Pre-emergence action against PHBPU in % ([18]; dosage 80 g/ha): 90%; Pre-emergence action against PHBPU in % ([18]; dosage 320 g/ha): 90%; Post-emergence action against ORYSA in % (Oryza sativa (ORYSA)): 20%; Post-emergence action against PHBPU in % ([21]; dosage 80 g/ha): 90%; Post-emergence action against PHBPU in % ([21]; dosage 320 g/ha): 100%; Pre-emergence action against ALOMY ([22]; 320 g/ha): 90%; Pre-emergence action against LOLRI in % (Lolium rigidum (LOLRI) [23]; dosage 80 g/ha): 80%; Pre-emergence action against LOLRI in % (Lolium rigidum (LOLRI) [23]; dosage 320 g/ha): 100%; Pre-emergence action against VIOTR in % (Viola tricolor (VIOTR) [24]; 320 g/ha, Viola tricolor): 90%; Pre-emergence action against VIOTR in % (Viola tricolor (VIOTR) [24]; dosage 80 g/ha): 90%
